From article PMC3820767, “Turning Defense into Offense: Defensin Mimetics as Novel Antibiotics Targeting Lipid II” (PLoS Pathogens, 2013)
Read-outs that look alike come from different tables or passages of the source.

Columns and labels:
[1] = Surface Plasmon Resonance binding to immobilized 3-Lipid II; conditions: Table S3; SPR, initial determination at 10 µM
Experimental: Surface Plasmon Resonance binding experiments were carried out on a BIAcore T100 system (BIAcore Inc., Piscataway, NY) at 25°C. The assay buffer was 10 mM HEPES, 150 mM NaCl, 0.05% surfactant P20, pH 7.4 (±3 mM EDTA) supplemented with 10% DMSO. […] For initial determination of binding, defensin mimetics were introduced into the flow-cells (30 µl/min) in the running buffer at 10 µM. Resonance signals were corrected for nonspecific binding by subtracting the background of the control flow-cell. After each analysis, the sensor chip surfaces were regenerated with 50 mM NaOH for 30 s at a flow rate 100 µl/min, and equilibrated with the buffer prior to next injection. For binding kinetics studies, binding isotherms were analyzed with manufacturer-supplied software for BIAcore T100.

[2] = tested on: Escherichia coli ATCC 25922; assay: Antibacterial killing, 96-well turbidimetric (modified vCC) assay; type: cell-based; conditions: Table S3; concentration at which 100% killing occurred, no bacterial regrowth; No = not active
Experimental: (§1) The antibacterial activity of defensin mimetics against Staphylococcus aureus ATCC 29213 and Escherichia coli 25922 was carried out in a 96-well turbidimetric assay essentially as described previously with the following modifications: bacteria were exposed for 30 min to compounds in 10 mM phosphate buffer containing 5% DMSO prior to addition of 2× Muller-Hinton medium. Bacterial growth was monitored for 12 hours and data were analyzed as described. Determination of MICs was performed by Micromyx, LLC (Kalamazoo, Michigan) according to CLSI standards.

[3] = tested on: Staphylococcus aureus ATCC 29213; assay: as above; type: cell-based; conditions: Table S3; concentration at which 100% killing occurred, no bacterial regrowth; No = not active
Experimental: as §1

Caco-2 = assay: Cytotoxicity by MTT assay; type: cell-based, human

Row | Structure (SMILES) | Binding on Lipid II? [1] | active against E.coli (IC100%) [2] | active against S.aureus (IC100%) [3] | cytotoxic for Caco II (C50% survival) (Caco-2) | IC50 (Caco-2) [µM] | cytotoxic for Caco II (C50% survival) (Caco-2; Table S3, No = not cytotoxic) | IC50 (Caco-2; Table S3, No = not cytotoxic, read-out: cytotoxic for Caco II (C50% survival)) [µM]
1 | Cc1ccc(CN2CCC(N3CCN(c4ccccc4F)CC3)CC2)cc1 [Compound 6711103, 1-(2-fluorophenyl)-4-[1-(4-methylbenzyl)-4-piperidinyl]piperazine] | No | No | No | No | – | – | –
2 | CCN1C(=CC(C)=Cc2sc3ccccc3[n+]2CC)Sc2ccccc21 [96932/4, 3-ethyl-2-(3-(3-ethyl-1,3-benzothiazol-2(3H)-ylidene)-2-methyl-1-propenyl)-1,3λ5-benzothiazole] | No | 15.625 µM | 15,6 µM | – | 19 | – | –
3 | Clc1ccc(N2CCN(Cc3ccc(-c4ccccc4)cc3)CC2)cc1 [Compound 5270046, 1-(4-biphenylylmethyl)-4-(4-chlorophenyl)piperazine] | No | No | No | No | – | – | –
4 | CC(C)CCCC(C)C1CCC2C3CC=C4CC(O)CCC4(C)C3CCC12C (stereo not shown) [Compound N050-0022, 2,15-dimethyl-14-(6-methylheptan-2-yl)tetracyclo[8.7.0.0^{2,7}.0^{11,15}]heptadec-7-en-5-ol] | No | No | No | – | 123 | – | –
5 | Cc1ccc(CN2C(=O)c3ccccc3C2(O)Cc2ccccc2)cc1 (stereo not shown) [Compound 7832238, 3-benzyl-3-hydroxy-2-[(4-methylphenyl)methyl]-2,3-dihydro-1H-isoindol-1-one] | No | No | No | No | – | – | –
6 | OCCSc1ccc(-c2ccc(SCCO)cc2)cc1 [Compound 5230234, 2,2'-[4,4'-biphenyldiylbis(thio)]diethanol] | No | No | No | – | – | No | –
7 | Oc1ccc(O)c2c1C1c3ccccc3C2c2ccccc21 [Compound 5190620, pentacyclo[6.6.6.0^{2,7}.0^{9,14}.0^{15,20}]icosa-2(7),3,5,9,11,13,15,17,19-nonaene-3,6-diol] | No | No | 62,5 µM | – | 3.7 | – | –
8 | CC(C)(C)c1csc(N2N=C(c3ccccc3)C(=NNc3ccccc3)C2=O)n1 [BAS00691248, 2-(4-tert-Butyl-thiazol-2-yl)-5-phenyl-4-(phenyl-hydrazono)-2,4-dihydro-pyrazol-3-one] | No | No | No | No | – | – | –
9 | CC[n+]1c(/C=C/C=C/N(C(C)=O)c2ccccc2)sc2cc(OC)ccc21 [STK874226, 2-{(1E,3E)-4-[acetyl(phenyl)amino]buta-1,3-dien-1-yl}-3-ethyl-6-methoxy-1,3-benzothiazol-3-ium] | No | 250 µM | 125 µM | No | – | – | –
10 | CN1CCC(N(Cc2ccccc2)C(=O)CCc2ccc3c(c2)n(C)c(=O)n3C)CC1 [SYN22879441, N-Benzyl-3-(1,3-dimethyl-2-oxo-2,3-dihydro-1H-benzoimidazol-5-yl)-N-(1-methyl-piperidin-4-yl)-propionamide] | No | No | No | No | – | – | –
11 | O=C(O)C(=O)O.c1ccc(CCCN2CCC(N3CCN(c4ccccc4)CC3)CC2)cc1 [Compound 6785396, 1-phenyl-4-[1-(3-phenylpropyl)-4-piperidinyl]piperazine oxalate] | No | No | No | – | 168 | – | –
12 | CC(C)(O)C#Cc1ccc(C#Cc2ccc(C#CC(C)(C)O)cc2)cc1 [Compound 7191067, 4,4'-(1,2-ethynediyldi-4,1-phenylene)bis(2-methyl-3-butyn-2-ol)] | No | No | No | No | – | – | –
13 | OCC(CO)C1c2cccc3ccc4cccc1c4c23 [625586/1, 2-(4H-cyclopenta[def]phenanthren-4-yl)-1,3-propanediol] | No | No | No | – | 83.8 | – | –
14 | CCn1c2ccccc2c2cc(N/C=C(\C#N)c3nc(-c4ccc(C)cc4C)cs3)ccc21 [STK537076, (2E)-2-[4-(2,4-dimethylphenyl)-1,3-thiazol-2-yl]-3-[(9-ethyl-9H-carbazol-3-yl)amino]prop-2-enenitrile] | No | No | No | – | 240 | – | –
15 | Fc1ccccc1CN1CCC(N2CCN(c3ccccc3)CC2)CC1 [Compound 5607-0206, 1-{1-[(2-fluorophenyl)methyl]piperidin-4-yl}-4-phenylpiperazine] | No | No | No | – | – | No | –
16 | Cc1cc2c(cc1C)CSC(c1ccc(O)cc1)SC2 [Compound 2729-1114, 4-(7,8-dimethyl-3,5-dihydro-1H-2,4-benzodithiepin-3-yl)phenol] | No | No | No | – | – | – | 119
17 | Cc1cc(C2c3ccccc3-c3ccccc32)cc(C)c1O [610995/1, 4-(9H-fluoren-9-yl)-2,6-dimethylphenol] | Yes | No | 125 µM | – | 9.2 | – | –
18 | CN(C)c1ccc(C=C2C=C(c3ccccc3)OC(c3ccccc3)=C2)cc1 [Compound 3377-0105, 4-[(2,6-diphenyl-4H-pyran-4-ylidene)methyl]-N,N-dimethylaniline] | No | No | 500 µM | – | 100 | – | –
19 | Fc1ccc(N2CCN(C3CCN(Cc4ccccc4)CC3)CC2)cc1 [Compound 5457685, 1-(1-benzyl-4-piperidinyl)-4-(4-fluorophenyl)piperazine] | No | No | No | No | – | – | –
20 | FC(F)(F)c1cccc(N2CCN(CCc3ccccc3)CC2)c1 [Compound 5422765, 1-(2-phenylethyl)-4-[3-(trifluoromethyl)phenyl]piperazine] | Yes | No | No | – | 130 | – | –
21 | OCc1ccc2c(c1)C1c3ccccc3C2c2ccccc21 [Compound 5100015, pentacyclo[6.6.6.0~2,7~.0~9,14~.0~15,20~]icosa-2,4,6,9,11,13,15,17,19-nonaen-4-ylmethanol] | No | No | 500 µM | – | 68 | – | –
22 | CCN1/C(=C\C=C\c2sc3c4ccccc4[se]c3[n+]2CC)Sc2c1[se]c1ccccc21 [STK368153, 3-ethyl-2-[(1E,3E)-3-(3-ethyl[1]benzoselenopheno[2,3-d][1,3]thiazol-2(3H)-ylidene)prop-1-en-1-yl][1]benzoselenopheno[2,3-d][1,3]thiazol-3-ium] | Yes | 7,8 µM | 7,8 µM | – | 9.6 | – | –
23 | Cc1cc2ccccc2n1C=CC1=[N+](C)c2ccccc2C1(C)C [4431/1, 1,3,3-trimethyl-2-(2-(2-methyl-1H-indol-1-yl)vinyl)-3H-1λ5-indole] | No | No | 250 µM | No | – | – | –
24 | CC[n+]1c(/C=C/C=C2C=C(/C=C/N(C(C)=O)c3ccccc3)CC(C)(C)C/2)sc2ccccc21.[I-] [Compound 5119716, 2-[(1E)-3-[(1E)-5,5-dimethyl-3-[(E)-2-(N-phenylacetamido)ethenyl]cyclohex-2-en-1-ylidene]prop-1-en-1-yl]-3-ethyl-1,3-benzothiazol-3-ium iodide] | No | No | 125 µM | – | 52.7 | – | –
25 | CN(C)c1ccc(C(c2ccc(N(C)C)cc2)C(O)c2ccccc2)cc1 (stereo not shown) [35487/2, 2,2-bis(4-(dimethylamino)phenyl)-1-phenylethanol] | No | No | No | No | – | – | –
